# Measured values as given in patent US12291515B2, “Pyrrolidine derivative and use thereof” (Rushi Biotech (Hangzhou) Co., Ltd, priority 2021, dated 2025).
# pIC50: −log10 of the molar value.
# What was measured:
# Format in all cases: cell-based
# [1] = tested on: Human lung adenocarcinoma cell A549; test: CCK-8 cell proliferation assay, A549; details: A549 cells, CCK-8, 24 hrs with drug, OD 450 nm
# Method: (§1) The effect of samples on the proliferation of human tumor cells in vitro was determined by CCK-8 cell proliferation assay.
# (§2) The cells were assayed through a method including the following steps:
# (§3) 1) The cells were digested, counted, and prepared into a cell suspension in a corresponding culture medium (Table 1) (5×10^4 cells/ml for CFPAC-1 and RPMI 8226, and 3.5×10^4 cells/ml for rest cells). The cell suspension was added to each well of a 96-well plate in 100 μl well.
# (§4) 2) Then the 96-well plate was incubated for 24 hrs in an incubator at 37° C. and 5% CO2.
# (§5) 3) The drug was diluted with the culture medium to the required working concentration. 100 μl of the corresponding drug containing medium was added to each well. A negative control group (added with drug-free culture medium) was also set.
# (§6) 4) Then the 96-well plate was incubated for 24 hrs in an incubator at 37° C. and 5% CO2.
# (§7) 5) The 96-well plate was stained with CCK-8, and The OD value was determined at λ=450 nm.
# (§8) a) 10 μl of CCK-8 was added to each well, and incubated in the incubator for another 2-3 hrs.
# (§9) b) The content was mixed uniformly by shaking gently on a shaker for 10 min, and the bubbles in the 96-well plate were removed.
# (§10) 6) The inhibition rate in each group was calculated.
# [2] = tested on: Human hepatoma cell HepG2; test: CCK-8 cell proliferation assay, HepG2; details: HepG2 cells, CCK-8, 24 hrs with drug, OD 450 nm
# Method: as §1, §2, §3, §4, §5, §6, §7, §8, §9, §10
# [3] = tested on: Human esophageal cancer cell TE-1; test: CCK-8 cell proliferation assay, TE-1; details: TE-1 cells, CCK-8, 24 hrs with drug, OD 450 nm
# Method: as §1, §2, §3, §4, §5, §6, §7, §8, §9, §10
# [4] = tested on: Human gastric cancer cell MKN45; test: CCK-8 cell proliferation assay, MKN-45; details: MKN-45 cells, CCK-8, 24 hrs with drug, OD 450 nm
# Method: as §1, §2, §3, §4, §5, §6, §7, §8, §9, §10
# [5] = tested on: Human colon cancer cell HCT-116; test: CCK-8 cell proliferation assay, HCT116; details: HCT116 cells, CCK-8, 24 hrs with drug, OD 450 nm
# Method: as §1, §2, §3, §4, §5, §6, §7, §8, §9, §10
# [6] = tested on: Human multiple myeloma cell RPMI 8226; test: CCK-8 cell proliferation assay, RPMI8226; details: RPMI8226 cells, CCK-8, 24 hrs with drug, OD 450 nm
# Method: as §1, §2, §3, §4, §5, §6, §7, §8, §9, §10
# [7] = tested on: Human pancreatic cancer cell CFPAC-1; test: CCK-8 cell proliferation assay, CFPAC-1; details: CFPAC-1 cells, CCK-8, 24 hrs with drug, OD 450 nm
# Method: as §1, §2, §3, §4, §5, §6, §7, §8, §9, §10
pIC50 [1],pIC50 [2],pIC50 [3],pIC50 [4],pIC50 [5],pIC50 [6],pIC50 [7],SMILES
7.51,7.16,7.12,7.24,7.48,7.77,7.55,"O=C(NCCCCCC1CCN(C(=O)c2ccccc2)C1)Nc1ccncc1 (stereo not drawn) [BSS-TP007, 1-(5-(1-(benzoyl)pyrrolidin-3-yl)pentyl)-2-(4-pyridinyl)urea]"
7.26,7.29,7.24,7.37,7.11,7.48,7.66,"O=C(NCCCCCC1CCN(C(=O)c2cccs2)C1)Nc1ccncc1 (stereo not drawn) [BSS-TP008, 1-(5-(1-(2-thienylformyl)pyrrolidin-3-yl)pentyl)-2-(4-pyridinyl)urea]"
7.54,7.34,7.31,7.20,7.68,7.59,7.41,"COc1cccc(OC)c1C(=O)N1CCC(CCCCCNC(=O)Nc2ccncc2)C1 (stereo not drawn) [BSS-TP009, 1-(5-(1-(2,6-dimethoxybenzoyl)pyrrolidin-3-yl)pentyl)-2-(4-pyridinyl) urea]"
7.44,7.39,7.38,7.47,7.60,7.70,7.42,"O=C(NCCCCCC1CCN(C(=O)c2ccc[nH]2)C1)Nc1ccncc1 (stereo not drawn) [BSS-TP010, 1-(5-(1-(2-pyrrolylformyl)pyrrolidin-3-yl)pentyl)-2-(4-pyridinyl)urea]"
7.48,7.11,7.09,7.44,7.15,7.49,7.54,"O=C(NCCCCCC1CCN(C(=O)c2ccco2)C1)Nc1ccncc1 (stereo not drawn) [BSS-TP011, 1-(5-(1-(furoyl)pyrrolidin-3-yl)pentyl)-2-(4-pyridinyl)urea]"
7.17,6.91,6.86,7.23,7.29,7.52,7.42,"O=C(NCCCCCC1CCN(C(=O)C2CCCO2)C1)Nc1ccncc1 (stereo not drawn) [BSS-TP012, 1-(5-(1-(2-tetrahydrofurylformyl)pyrrolidin-3-yl)pentyl)-2-(4-pyridinyl)urea]"
7.09,6.88,7.01,7.14,7.17,7.35,7.39,"O=C(NCCCCCC1CCN(C(=O)C2CCCS2)C1)Nc1ccncc1 (stereo not drawn) [BSS-TP013, 1-(5-(1-(2-tetrahydrothienylformyl)pyrrolidin-3-yl)pentyl)-2-(4-pyridinyl)urea]"
6.93,7.05,7.09,7.04,7.21,7.30,7.29,"O=C(NCCCCCC1CCN(C(=O)C2CCCN2)C1)Nc1ccncc1 (stereo not drawn) [BSS-TP014, 1-(5-(1-(2-pyrrolidinylformyl)pyrrolidin-3-yl)pentyl)-2-(4-pyridinyl)urea]"
7.51,7.41,7.24,7.48,7.37,7.66,7.55,O=C(NCCCCCC1CCN(C(=O)c2ccccc2)C1)Nc1ccnc(F)c1 (stereo not drawn) [BSS-TP015]
7.52,7.23,7.26,7.34,7.39,7.52,7.49,COc1cccc(OC)c1C(=O)N1CCC(CCCCCNC(=O)Nc2ccnc(F)c2)C1 (stereo not drawn) [BSS-TP016]
7.39,7.11,7.16,7.26,7.24,7.38,7.39,O=C(NCCCCCC1CCN(C(=O)c2ccc[nH]2)C1)Nc1ccnc(F)c1 (stereo not drawn) [BSS-TP017]
7.42,7.21,7.06,7.41,7.29,7.42,7.48,O=C(NCCCCCC1CCN(C(=O)c2ccco2)C1)Nc1ccnc(F)c1 (stereo not drawn) [BSS-TP018]
7.14,7.07,6.88,7.15,7.41,7.36,7.31,O=C(NCCCCCC1CCN(C(=O)c2cccs2)C1)Nc1ccnc(F)c1 (stereo not drawn) [BSS-TP019]
7.03,7.31,7.04,7.28,7.33,7.48,7.47,O=C(NCCCCCC1CCN(C(=O)C2CCCN2)C1)Nc1ccnc(F)c1 (stereo not drawn) [BSS-TP020]
7.48,7.38,7.19,7.19,7.11,7.38,7.51,O=C(NCCCCCC1CCN(C(=O)c2ccccc2)C1)Nc1cc(F)nc(F)c1 (stereo not drawn) [BSS-TP021]
7.28,7.14,6.99,7.12,7.16,7.38,7.34,"O=C(NCCCCCC1CCN(C(=O)c2ccccc2)C1)Nc1cccnc1 (stereo not drawn) [BSS-TP023, 1-(5-(1-(benzoyl)pyrrolidin-3-yl)pentyl)-2-(3-pyridinyl)urea]"
7.23,7.13,6.95,7.09,7.14,7.31,7.41,"O=C(NCCCCCC1CCN(C(=O)c2cccs2)C1)Nc1cccnc1 (stereo not drawn) [BSS-TP024, 1-(5-(1-(2-thienylformyl)pyrrolidin-3-yl)pentyl)-2-(3-pyridinyl)urea]"
7.21,7.11,7.19,7.28,7.27,7.40,7.43,"O=C(NCCCCCC1CCN(C(=O)c2cc3ccccc3[nH]2)C1)Nc1ccncc1 (stereo not drawn) [BSS-TP025, 1-(5-(1-(2-indolylformyl)pyrrolidin-3-yl)pentyl)-2-(4-pyridinyl)urea]"
7.16,7.08,7.14,7.15,7.04,7.29,7.38,"O=C(NCCCCCC1CCN(C(=O)c2cc3ccccc3o2)C1)Nc1ccncc1 (stereo not drawn) [BSS-TP026, 1-(5-(1-(2-benzofurylformyl)pyrrolidin-3-yl)pentyl)-2-(4-pyridinyl)urea]"
7.06,6.99,7.03,7.19,7.04,7.26,7.23,"O=C(NCCCCCC1CCN(C(=O)C2Cc3ccccc3O2)C1)Nc1ccncc1 (stereo not drawn) [BSS-TP027, 1-(5-(1-(2-benzotetrahydrofurylformyl)pyrrolidin-3-yl)pentyl)-2-(4-pyridinyl)urea]"
7.39,7.23,7.24,7.36,7.20,7.38,7.51,"O=C(NCCCCCC1CCN(C(=O)c2ccco2)C1)Nc1cccnc1 (stereo not drawn) [BSS-TP028, 1-(5-(1-(furoyl)pyrrolidin-3-yl)pentyl)-2-(3-pyridinyl)urea]"
7.38,7.20,7.22,7.24,7.21,7.34,7.40,O=C(NCCCCCC1CCN(C(=O)c2occc2F)C1)Nc1ccncc1 (stereo not drawn) [BSS-TP030]
7.23,7.29,7.17,7.35,7.28,7.41,7.48,O=C(NCCCCCC1CCN(C(=O)c2[nH]ccc2F)C1)Nc1ccncc1 (stereo not drawn) [BSS-TP031]
7.14,7.00,6.93,7.13,7.16,7.24,7.41,COc1cccc(OC)c1C(=O)N1CCC(CCCCCNC(=O)Nc2cc(F)nc(F)c2)C1 (stereo not drawn) [BSS-TP032]
7.19,7.09,7.06,7.19,7.14,7.28,7.25,"COc1cccc(OC)c1C(=O)N1CCC(CCCCCNC(=O)Nc2cccnc2)C1 (stereo not drawn) [BSS-TP033, 1-(5-(1-(2,6-dimethoxybenzoyl)pyrrolidin-3-yl)pentyl)-2-(3-pyridinyl) urea]"
7.41,7.09,7.14,7.33,7.18,7.54,7.46,O=C(NCCCCCC1CCN(C(=O)c2ccco2)C1)Nc1cc(F)nc(F)c1 (stereo not drawn) [BSS-TP035]
7.24,6.90,7.03,7.28,7.11,7.31,7.38,O=C(NCCCCCC1CCN(C(=O)c2cc3ccccc3o2)C1)Nc1cc(F)nc(F)c1 (stereo not drawn) [BSS-TP036]
